Assay results as given in patent US8497287B2, “Aminotetralin compounds as mu opioid receptor antagonists” (priority 2007, dated 2013).

How the values were obtained:
[1] = molecular target: T1, human mu opioid receptor (Homo sapiens, UniProt P35372); experiment: biochemical; details: read-out: intrinsic activity (IA), expressed as a percentage
T1 construct: host or cells: CHO-K1 cells, membranes

[2] = molecular target: T1, human mu opioid receptor; experiment: biochemical; type: binding
[3] = test system: loperamide-induced delayed gastric emptying; experiment: Rat gastric emptying assay, reversal of loperamide-induced delayed gastric emptying; type: in vivo; details: administered orally, loperamide 1 mg/kg s.c., gastric emptying model

T1 sequence (P35372 whole entry): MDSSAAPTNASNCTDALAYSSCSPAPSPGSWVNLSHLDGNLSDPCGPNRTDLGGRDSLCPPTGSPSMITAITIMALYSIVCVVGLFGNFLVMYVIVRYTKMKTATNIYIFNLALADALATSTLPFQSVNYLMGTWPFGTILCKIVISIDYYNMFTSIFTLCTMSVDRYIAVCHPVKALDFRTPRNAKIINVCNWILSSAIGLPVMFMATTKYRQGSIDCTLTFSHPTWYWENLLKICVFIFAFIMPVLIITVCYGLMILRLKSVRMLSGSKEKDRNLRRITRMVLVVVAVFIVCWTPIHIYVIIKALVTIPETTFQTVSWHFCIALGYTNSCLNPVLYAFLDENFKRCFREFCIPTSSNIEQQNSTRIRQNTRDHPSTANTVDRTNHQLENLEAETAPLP

## COC1Cc2ccc(C(N)=O)cc2C(C)(C)C1NCCC(=O)N1CCCCC1 (racemic) [Example 1, trans-6-Methoxy-8,8-dimethyl-7-(3-oxo-3-piperidin-1-yl-propylamino)-5,6,7,8-tetrahydro-naphthalene-2-carboxylic acid amide]
[1]
  Emax: 0%
[2]
  Ki: 0.1 nM
[3]
  ID50, dose required for 50% reversal of the effects of loperamide: 0.48 mg/kg

## CCC1(CC)c2cc(O)ccc2C[C@@H](OC)[C@@H]1NCC(Cc1ccccc1)C(=O)O (relative stereo) [Example 11, 2-Benzyl-3-(trans-1,1-diethyl-7-hydroxy-3-methoxy-1,2,3,4-tetrahydro-naphthalen-2-ylamino)-propionic acid]
[1]
  Emax: -6%
[2]
  Ki: 1.26 nM
